This note sets out measurements from US9029409B2, “Isoxazolines as therapeutic agents” (AbbVie Inc., priority 2011, dated 2015).

Some results are limits rather than exact numbers.

The assay concerns the target T1, recombinant human MMP13 catalytic domain (CD) (Homo sapiens, UniProt P45452).
T1 construct: catalytic domain (CD) construct encompassing residues 20-274 (SWISS-PROT P45452); made in house
As to the kind of experiment: MMP-13 catalytic domain FRET enzyme assay. It counts as biochemical. The note with it: recombinant human MMP-13 catalytic domain. The procedure, abridged:
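Human MMP-13 catalytic domain (res 20-274, E. coli-expressed), 0.4 nM, cleaving FRET peptide (0.25 μM) in Tris pH 7.5/CaCl2/NaCl/Brij 35, 5% DMSO, 60 min RT; EDTA-quenched, fluorescence 485/535 nm. IC50 from sigmoidal fit of % inhibition. Some compounds also run on APMA-activated full-length MMP13 (2 nM).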

For `COc1ccc(CNC(=O)c2cc(C3=NOC(c4ccccc4)C3)nc(C)n2)cc1` (stereo not drawn), the IC50 was 10 to 100 nM.

Consider `COc1ccc(CNC(=O)c2cc(C3=NOC(C)(c4ccc(CO)cc4)C3)nc(C)n2)cc1` (stereo not drawn), for which the IC50 was in the range of 100 to 1000 nM.

In the case of `COc1cc(CNC(=O)c2cc(C3=NOC(c4ccsc4)C3)nc(C)n2)ccc1F` (stereo not drawn), the IC50 was less than 10 nM.

Consider `COc1cc(CNC(=O)c2cc(C3=NOC(c4ccncc4)C3)nc(C)n2)ccc1F` (stereo not drawn), for which the IC50 was less than 10 nM.

Regarding `COc1cc(CNC(=O)c2cc(C3=NOC(c4ccc(CN5CCS(=O)(=O)CC5)cc4)C3)nc(C)n2)ccc1F` (stereo not drawn), the IC50 was less than 10 nM.

Turning to `COc1cc(CNC(=O)c2cc(C3=NOC(c4ccc(C(=O)NCCO)cc4)C3)nc(C)n2)ccc1F` (stereo not drawn), the IC50 lay within 10 to 100 nM.

Regarding `COc1cc(CNC(=O)c2cc(C3=NOC(CC4CCN(C(C)=O)CC4)C3)nc(C)n2)ccc1F` (stereo not drawn), the IC50 was 10 to 100 nM.

For `COc1cc(CNC(=O)c2cc(C3=NOC(c4cncnc4)C3)nc(C)n2)ccc1F` (stereo not drawn), the IC50 lay in the range of 10 to 100 nM.

Take `COc1cc(CNC(=O)c2cc(C3=NOC(c4ccc(C(C)(C)O)cc4)C3)nc(C)n2)ccc1F` (stereo not drawn): the IC50 fell in the range of 10 to 100 nM.

Turning to `COc1cc(CNC(=O)c2cc(C3=NOC(CC4CCN(C(=O)CO)CC4)C3)nc(C)n2)ccc1F` (stereo not drawn), the IC50 lay in the range of 10 to 100 nM.

Consider `COc1cc(CNC(=O)c2cc(C3=NOC(CC4CCN(S(C)(=O)=O)CC4)C3)nc(C)n2)ccc1F` (stereo not drawn), for which the IC50 was 10 to 100 nM.

`COc1cc(CNC(=O)c2cc(C3=NOC(c4ccnc(C(N)=O)c4)C3)nc(C)n2)ccc1F` (stereo not drawn): the IC50 was in the range of 10 to 100 nM.

On to `COc1cc(CNC(=O)c2cc(C3=NOC(c4cn[nH]c4)C3)nc(C)n2)ccc1F` (stereo not drawn), for which the IC50 is 10 to 100 nM.

As to `COc1cc(CNC(=O)c2cc(C3=NOC([C@H]4CC[C@H](NC(C)=O)CC4)C3)nc(C)n2)ccc1F` (stereo partly drawn), the IC50 was less than 10 nM.

For `COc1cc(CNC(=O)c2cc(C3=NOC([C@H]4CC[C@H](NS(C)(=O)=O)CC4)C3)nc(C)n2)ccc1F` (stereo partly drawn), the IC50 is less than 10 nM.

With `COc1cc(CNC(=O)c2cc(C3=NOC([C@H]4CC[C@H](NC(=O)CO)CC4)C3)nc(C)n2)ccc1F` (stereo partly drawn), the IC50 is less than 10 nM.

As for `COc1cc(CNC(=O)c2cc(C3=NOC(c4ncccn4)C3)nc(C)n2)ccc1F` (stereo not drawn), the IC50 was in the range of 10 to 100 nM.

Consider `COc1cc(CNC(=O)c2cc(C3=NOC(C4CCOCC4)C3)nc(C)n2)ccc1F` (stereo not drawn), for which the IC50 is less than 10 nM.

`Cc1nc(C(=O)NCc2ccc(F)c(C)c2)cc(C2=NOC(c3ccccn3)C2)n1` (stereo not drawn): the IC50 lay in the range of 10 to 100 nM.

For the compound `CC(=O)N1CCC(C2CC(c3cc(C(=O)NCc4ccc(F)c(C)c4)nc(C)n3)=NO2)CC1` (stereo not drawn), the IC50 was 10 to 100 nM.

For the compound `COc1cc(CNC(=O)c2cc(C3=NO[C@@H](c4ccn(C)c(=O)c4)C3)nc(C)n2)ccc1F`, the IC50 was in the range of 100 to 1000 nM.

Turning to `COc1cc(CNC(=O)c2cc(C3=NOC(c4ccc(=O)n(C(C)C)c4)C3)nc(C)n2)ccc1F` (stereo not drawn), the IC50 was less than 10 nM.

For `CC(=O)N[C@H]1CC[C@H](C2CC(c3cc(C(=O)NCc4ccnc5ccccc45)nc(C)n3)=NO2)CC1` (stereo partly drawn), the IC50 was 100 to 1000 nM.

On to `Cc1nc(C(=O)NCc2ccnc3ccccc23)cc(C2=NO[C@H]([C@H]3CO[C@H](CO)CO3)C2)n1`, for which the half-maximal inhibitory concentration (IC50) lay in the range of 100 to 1000 nM.

`Cc1nc(C(=O)NCc2ccnc3ccccc23)cc(C2=NO[C@@H]([C@H]3CO[C@H](CO)CO3)C2)n1`: the IC50 was 100 to 1000 nM.

With `Cc1nc(C(=O)NCc2ccc3c(c2)NC(=O)CC3)cc(C2=NO[C@H]([C@H]3CO[C@H](CO)CO3)C2)n1`, the IC50 is 10 to 100 nM.

As for `Cc1nc(C(=O)NCc2ccc3c(c2)NC(=O)CC3)cc(C2=NO[C@@H]([C@H]3CO[C@H](CO)CO3)C2)n1`, the IC50 was 100 to 1000 nM.

With `CNC(=O)Cn1ccc(C2CC(c3cc(C(=O)NCc4ccc(F)c(OC)c4)nc(C)n3)=NO2)cc1=O` (stereo not drawn), the IC50 was 10 to 100 nM.

Regarding `Cc1nc(C(=O)NCc2ccc(F)c(F)c2)cc(C2=NO[C@H](c3ccc(=O)n(C)c3)C2)n1`, the IC50 was less than 10 nM.

In the case of `Cc1nc(C(=O)NCc2ccc(F)c(F)c2)cc(C2=NO[C@@H](c3ccc(=O)n(C)c3)C2)n1`, the IC50 lay in the range of 100 to 1000 nM.

Consider `COc1ccc(C2CC(c3cc(C(=O)NCc4ccc(F)c(OC)c4)nc(C)n3)=NO2)nn1` (stereo not drawn), for which the IC50 lay in the range of 10 to 100 nM.

`CNC(=O)Cn1cc([C@@H]2CC(c3cc(C(=O)NCc4ccc(F)c(OC)c4)nc(C)n3)=NO2)ccc1=O`: the IC50 is less than 10 nM.

In the case of `CNC(=O)Cn1cc([C@H]2CC(c3cc(C(=O)NCc4ccc(F)c(OC)c4)nc(C)n3)=NO2)ccc1=O`, the IC50 was in the range of 10 to 100 nM.

For the compound `COc1cc(CNC(=O)c2cc(C3=NOC(c4ccc(=O)n(CC(=O)N(C)C)c4)C3)nc(C)n2)ccc1F` (stereo not drawn), the IC50 lay within 10 to 100 nM.

As for `Cc1nc(C(=O)NCc2ccc3c(c2)NC(=O)CO3)cc(C2=NOC(c3ccc(=O)n(C)c3)C2)n1` (stereo not drawn), the IC50 is less than 10 nM.

`COc1cc(CNC(=O)c2cc(C3=NOC(c4ccc(=O)n(CC(=O)N(C)OC)c4)C3)nc(C)n2)ccc1F` (stereo not drawn): the IC50 is less than 10 nM.

Turning to `CNC(=O)Cn1cc(C2CC(c3cc(C(=O)NCc4ccc(F)c(OC)c4)nc(C)n3)=NO2)cc(Cl)c1=O` (stereo not drawn), the half-inhibitory concentration (IC50) was less than 10 nM.

`COc1cccc(C2CC(c3cc(C(=O)NCc4ccc(F)c(OC)c4)nc(C)n3)=NO2)n1` (stereo not drawn): the IC50 lay in the range of 10 to 100 nM.

For the compound `COc1cc(CNC(=O)c2cc(C3=NOC(c4ccc(=O)n(C5CC5)n4)C3)nc(C)n2)ccc1F` (stereo not drawn), the IC50 lay within 10 to 100 nM.

Turning to `COc1cc(CNC(=O)c2cc(C3=NOC(c4ccn(C5CC5)c(=O)c4)C3)nc(C)n2)ccc1F` (stereo not drawn), the IC50 lay within 10 to 100 nM.

In the case of `COc1cc(CNC(=O)c2cc(C3=NOC(c4ccn(CC(=O)N(C)C)c(=O)c4)C3)nc(C)n2)ccc1F` (stereo not drawn), the IC50 was in the range of 10 to 100 nM.

Turning to `CC(=O)N[C@H]1CC[C@H]([C@@H]2CC(c3cc(C(=O)NCc4ccc5c(c4)NC(=O)CO5)nc(C)n3)=NO2)CC1`, the IC50 was less than 10 nM.

For the compound `CC(=O)N[C@H]1CC[C@H]([C@H]2CC(c3cc(C(=O)NCc4ccc5c(c4)NC(=O)CO5)nc(C)n3)=NO2)CC1`, the IC50 was less than 10 nM.

As for `CNC(=O)Cn1nc(C2CC(c3cc(C(=O)NCc4ccc(F)c(OC)c4)nc(C)n3)=NO2)ccc1=O` (stereo not drawn), the IC50 was in the range of 10 to 100 nM.

As to `Cc1nc(C(=O)NCc2ccc(=O)n(C)c2)cc(C2=NO[C@H]([C@H]3CO[C@H](CO)CO3)C2)n1`, the IC50 was in the range of 10 to 100 nM.

Regarding `Cc1nc(C(=O)NCc2ccc(=O)n(C)c2)cc(C2=NO[C@@H]([C@H]3CO[C@H](CO)CO3)C2)n1`, the half-inhibitory concentration (IC50) was 100 to 1000 nM.

As to `Cc1nc(C(=O)NCc2ccc3c(c2)NC(=O)CO3)cc(C2=NOC([C@H]3CC[C@H](NC(=O)[C@H](C)O)CC3)C2)n1` (stereo partly drawn), the IC50 was less than 10 nM.

In the case of `COc1cc(CNC(=O)c2cc(C3=NOC(c4cc(Cl)c(=O)n(C5CC5)c4)C3)nc(C)n2)ccc1F` (stereo not drawn), the IC50 is less than 10 nM.

On to `COc1cc(CNC(=O)c2cc(C3=NO[C@H](c4ccc(=O)n(C5CC5)c4)C3)nc(C)n2)ccc1F`, for which the IC50 was less than 10 nM.

As to `COc1cc(CNC(=O)c2cc(C3=NO[C@@H](c4ccc(=O)n(C5CC5)c4)C3)nc(C)n2)ccc1F`, the IC50 is 10 to 100 nM.

As for `COc1cc(CNC(=O)c2cc(C3=NOC(c4ccc(=O)n(CC(=O)N(C)C)n4)C3)nc(C)n2)ccc1F` (stereo not drawn), the IC50 was 10 to 100 nM.

Take `Cc1nc(C(=O)NCc2ccc3c(c2)NC(=O)CO3)cc(C2=NOC(c3ccc(=O)n(C4CC4)c3)C2)n1` (stereo not drawn): the IC50 was less than 10 nM.

Turning to `COc1cc(CNC(=O)c2cc(C3=NOC(c4ccc(=O)n(CC(=O)NC5CC5)c4)C3)nc(C)n2)ccc1F` (stereo not drawn), the IC50 was less than 10 nM.

As for `COc1cc(CNC(=O)c2cc(C3=NOC(c4ccccc4)C3)c(=O)n(C)n2)ccc1F` (stereo not drawn), the IC50 is 10 to 100 nM.

On to `COc1cc(CNC(=O)c2cc(C3=NOC(c4ccn(CC(=O)N(C)OC)c(=O)c4)C3)nc(C)n2)ccc1F` (stereo not drawn), for which the IC50 lay within 10 to 100 nM.

Take `COc1cc(CNC(=O)c2cc(C3=NOC(c4ccn(CC(=O)NC(C)C)c(=O)c4)C3)nc(C)n2)ccc1F` (stereo not drawn): the IC50 lay within 10 to 100 nM.

For the compound `Cc1nc(C(=O)NCc2ccc3c(c2)NC(=O)CO3)cc(C2=NO[C@H]([C@H]3CC[C@H](NC(=O)[C@H](C)O)CC3)C2)n1`, the IC50 is less than 10 nM.

Take `Cc1nc(C(=O)NCc2ccc3c(c2)NC(=O)CO3)cc(C2=NO[C@@H]([C@H]3CC[C@H](NC(=O)[C@H](C)O)CC3)C2)n1`: the IC50 is less than 10 nM.

Turning to `COc1cc(CNC(=O)c2cc(C3=NO[C@@H]([C@H]4CO[C@H](CO)CO4)C3)nc(C)n2)ccc1F` [drawing 837], the IC50 lay within 100 to 1000 nM.

On to `COc1cc(CNC(=O)c2cc(C3=NOC(C4CCN(C(=O)C5CC5)CC4)C3)nc(C)n2)ccc1F` (stereo not drawn) [drawing 875], for which the IC50 is 10 to 100 nM.

For `COc1cc(CNC(=O)c2cc(C3=NOC(C4CCN(C(=O)N(C)C)CC4)C3)nc(C)n2)ccc1F` (stereo not drawn) [drawing 876], the IC50 was less than 10 nM.

Regarding `CCNC(=O)N1CCC(C2CC(c3cc(C(=O)NCc4ccc(F)c(OC)c4)nc(C)n3)=NO2)CC1` (stereo not drawn) [drawing 877], the IC50 lay within 10 to 100 nM.

As to `COc1cc(CNC(=O)c2cc(C3=NOC(C4CCN(C(=O)CNC(C)=O)CC4)C3)nc(C)n2)ccc1F` (stereo not drawn) [drawing 879], the IC50 was 10 to 100 nM.

Take `COc1cc(CNC(=O)c2cc(C3=NOC(C4CCN(C(=O)CC#N)CC4)C3)nc(C)n2)ccc1F` (stereo not drawn) [drawing 881]: the IC50 was in the range of 10 to 100 nM.

Consider `COc1cc(CNC(=O)c2cc(C3=NOC(C4CCN(C(=O)NCCO)CC4)C3)nc(C)n2)ccc1F` (stereo not drawn) [drawing 888], for which the IC50 is less than 10 nM.

Regarding `Cc1nc(C(=O)NCc2ccc(F)c(Cl)c2)cc(C2=NO[C@H]([C@H]3CO[C@H](CO)CO3)C2)n1` [drawing 901], the IC50 was less than 10 nM.

On to `Cc1nc(C(=O)NCc2ccc(F)c(Cl)c2)cc(C2=NO[C@@H]([C@H]3CO[C@H](CO)CO3)C2)n1` [drawing 902], for which the IC50 is 100 to 1000 nM.

On to `COc1ccc(CNC(=O)c2cc(C3=NO[C@H]([C@H]4CO[C@@H](CO)CO4)C3)nc(C)n2)cc1` [drawing 922], for which the IC50 is greater than 1000 nM.

Regarding `COc1ccc(CNC(=O)c2cc(C3=NO[C@H]([C@H]4CO[C@@H](CO)CO4)C3)nc(C)n2)cc1` [drawing 923], the IC50 was greater than 1000 nM.
